Values quoted from earlier work, collected in patent US20180344676A1, “TOPICAL ANALGESIC PAIN RELIEF FORMULATIONS, MANUFACTURE AND METHODS OF USE THEREOF” (priority 2015, published 2018).

Key:
[1] = molecular target: hTRPA1 (Homo sapiens, UniProt O75762); conditions: for inhibition of hTRPA1 activation by menthol and allyl isothiocyanate: compound at 1 mM, menthol 1 mM and allyl isothiocyanate 10 uM
[2] = tested on: pain and itch responses; conditions: mice
[3] = tested on: TRPV1
[4] = molecular target: hTRPV1 (Homo sapiens, UniProt Q8NER1)
Chain of hTRPV1 (Q8NER1 whole entry): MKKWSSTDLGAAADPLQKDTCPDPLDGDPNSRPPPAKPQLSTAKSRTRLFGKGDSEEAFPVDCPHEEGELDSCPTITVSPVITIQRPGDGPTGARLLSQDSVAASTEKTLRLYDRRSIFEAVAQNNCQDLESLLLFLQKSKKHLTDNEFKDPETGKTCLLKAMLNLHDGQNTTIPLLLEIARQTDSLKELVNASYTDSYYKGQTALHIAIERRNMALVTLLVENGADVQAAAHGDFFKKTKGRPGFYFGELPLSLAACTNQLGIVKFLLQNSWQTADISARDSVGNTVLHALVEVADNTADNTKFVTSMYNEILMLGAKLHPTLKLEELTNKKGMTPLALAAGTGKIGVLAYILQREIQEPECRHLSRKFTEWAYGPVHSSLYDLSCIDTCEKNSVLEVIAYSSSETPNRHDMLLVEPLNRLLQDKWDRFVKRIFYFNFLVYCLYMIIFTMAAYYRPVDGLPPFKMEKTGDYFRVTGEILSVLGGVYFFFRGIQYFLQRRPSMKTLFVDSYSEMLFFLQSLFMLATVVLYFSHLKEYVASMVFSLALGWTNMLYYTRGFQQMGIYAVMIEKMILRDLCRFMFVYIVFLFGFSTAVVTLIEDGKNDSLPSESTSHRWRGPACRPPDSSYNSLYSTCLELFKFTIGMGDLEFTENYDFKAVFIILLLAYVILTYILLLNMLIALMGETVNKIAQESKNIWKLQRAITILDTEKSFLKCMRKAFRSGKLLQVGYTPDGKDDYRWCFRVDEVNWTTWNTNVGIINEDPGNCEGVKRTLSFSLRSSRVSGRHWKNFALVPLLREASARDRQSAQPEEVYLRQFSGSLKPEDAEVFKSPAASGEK

[5] = molecular target: T1, hTRPV2 (Homo sapiens, UniProt Q9Y5S1)
T1 sequence (Q9Y5S1 1-764): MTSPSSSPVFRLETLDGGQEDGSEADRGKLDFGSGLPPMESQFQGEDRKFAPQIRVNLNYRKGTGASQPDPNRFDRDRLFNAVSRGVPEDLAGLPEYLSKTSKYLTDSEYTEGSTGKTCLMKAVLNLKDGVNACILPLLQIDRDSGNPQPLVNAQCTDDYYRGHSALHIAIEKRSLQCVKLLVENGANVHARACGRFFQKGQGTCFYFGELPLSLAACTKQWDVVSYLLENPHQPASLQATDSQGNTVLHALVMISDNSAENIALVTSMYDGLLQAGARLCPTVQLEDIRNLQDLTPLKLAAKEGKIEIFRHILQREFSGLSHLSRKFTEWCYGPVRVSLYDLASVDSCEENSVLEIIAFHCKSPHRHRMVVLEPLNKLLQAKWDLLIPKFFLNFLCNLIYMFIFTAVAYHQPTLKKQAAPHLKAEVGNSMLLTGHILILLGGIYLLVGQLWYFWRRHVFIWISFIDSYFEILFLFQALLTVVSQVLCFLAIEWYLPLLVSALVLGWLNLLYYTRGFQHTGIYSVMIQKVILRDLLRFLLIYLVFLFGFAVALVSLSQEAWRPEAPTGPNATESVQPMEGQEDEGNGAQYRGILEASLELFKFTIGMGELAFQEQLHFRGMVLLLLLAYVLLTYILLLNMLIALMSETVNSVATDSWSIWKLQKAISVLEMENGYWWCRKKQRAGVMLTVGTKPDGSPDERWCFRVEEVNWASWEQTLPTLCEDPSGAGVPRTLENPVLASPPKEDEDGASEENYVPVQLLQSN

[6] = molecular target: human TRPM8 (hTRPM8) (Homo sapiens, UniProt Q7Z2W7)
Chain of human TRPM8 (hTRPM8) (Q7Z2W7 whole entry): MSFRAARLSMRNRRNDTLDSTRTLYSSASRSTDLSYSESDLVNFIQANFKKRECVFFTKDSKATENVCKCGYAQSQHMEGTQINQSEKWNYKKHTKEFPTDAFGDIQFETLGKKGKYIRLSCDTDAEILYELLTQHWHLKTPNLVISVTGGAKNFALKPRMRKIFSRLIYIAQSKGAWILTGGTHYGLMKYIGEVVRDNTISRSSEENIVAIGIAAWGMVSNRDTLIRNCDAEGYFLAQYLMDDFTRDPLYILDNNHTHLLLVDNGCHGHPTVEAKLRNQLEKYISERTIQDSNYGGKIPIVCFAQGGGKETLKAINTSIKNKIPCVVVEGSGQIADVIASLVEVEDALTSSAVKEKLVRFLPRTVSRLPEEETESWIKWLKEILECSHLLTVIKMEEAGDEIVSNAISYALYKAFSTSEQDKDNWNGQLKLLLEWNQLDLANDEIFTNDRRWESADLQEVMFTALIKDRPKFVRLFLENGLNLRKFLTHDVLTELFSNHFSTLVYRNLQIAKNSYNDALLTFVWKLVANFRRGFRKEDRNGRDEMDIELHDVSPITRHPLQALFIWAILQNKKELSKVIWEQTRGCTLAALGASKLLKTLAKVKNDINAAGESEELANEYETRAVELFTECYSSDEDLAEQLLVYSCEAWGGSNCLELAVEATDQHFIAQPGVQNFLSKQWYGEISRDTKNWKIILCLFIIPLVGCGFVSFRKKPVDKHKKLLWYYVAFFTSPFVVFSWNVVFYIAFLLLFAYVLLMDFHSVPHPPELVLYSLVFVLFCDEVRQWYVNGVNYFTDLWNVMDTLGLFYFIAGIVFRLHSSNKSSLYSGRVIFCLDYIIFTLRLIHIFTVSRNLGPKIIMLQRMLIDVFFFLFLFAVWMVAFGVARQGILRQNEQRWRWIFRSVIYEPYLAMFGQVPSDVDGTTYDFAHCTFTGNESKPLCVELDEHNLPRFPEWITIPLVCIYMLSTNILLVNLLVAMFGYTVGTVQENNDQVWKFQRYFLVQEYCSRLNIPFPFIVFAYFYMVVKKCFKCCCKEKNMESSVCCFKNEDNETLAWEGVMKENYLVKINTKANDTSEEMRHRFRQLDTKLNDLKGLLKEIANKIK

Chain of hTRPA1 (O75762 whole entry): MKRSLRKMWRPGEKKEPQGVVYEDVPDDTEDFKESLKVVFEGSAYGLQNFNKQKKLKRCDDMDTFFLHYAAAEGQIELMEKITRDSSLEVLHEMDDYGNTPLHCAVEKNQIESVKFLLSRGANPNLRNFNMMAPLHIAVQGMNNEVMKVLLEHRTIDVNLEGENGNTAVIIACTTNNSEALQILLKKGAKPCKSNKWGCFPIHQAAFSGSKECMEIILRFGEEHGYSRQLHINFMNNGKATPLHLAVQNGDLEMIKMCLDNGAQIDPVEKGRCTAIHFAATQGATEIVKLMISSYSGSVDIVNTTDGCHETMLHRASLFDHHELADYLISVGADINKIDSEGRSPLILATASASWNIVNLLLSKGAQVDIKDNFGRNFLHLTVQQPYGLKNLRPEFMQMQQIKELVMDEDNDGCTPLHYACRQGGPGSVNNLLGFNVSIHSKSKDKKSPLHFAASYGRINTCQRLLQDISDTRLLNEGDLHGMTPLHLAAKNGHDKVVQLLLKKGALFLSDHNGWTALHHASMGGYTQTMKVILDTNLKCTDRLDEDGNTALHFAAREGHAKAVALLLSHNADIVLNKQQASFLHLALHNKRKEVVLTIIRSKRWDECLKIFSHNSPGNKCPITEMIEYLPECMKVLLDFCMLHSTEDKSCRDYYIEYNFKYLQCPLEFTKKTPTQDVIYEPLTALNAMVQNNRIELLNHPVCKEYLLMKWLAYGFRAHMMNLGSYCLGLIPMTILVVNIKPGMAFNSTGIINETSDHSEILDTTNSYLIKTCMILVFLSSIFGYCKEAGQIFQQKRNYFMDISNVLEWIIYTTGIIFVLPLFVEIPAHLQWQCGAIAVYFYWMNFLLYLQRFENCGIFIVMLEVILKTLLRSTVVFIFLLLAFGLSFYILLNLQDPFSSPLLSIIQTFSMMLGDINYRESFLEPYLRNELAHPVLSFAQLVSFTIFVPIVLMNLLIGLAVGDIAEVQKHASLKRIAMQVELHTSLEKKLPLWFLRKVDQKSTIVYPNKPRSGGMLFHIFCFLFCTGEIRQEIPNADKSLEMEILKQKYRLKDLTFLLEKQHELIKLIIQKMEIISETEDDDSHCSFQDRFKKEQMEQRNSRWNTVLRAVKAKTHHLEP

SMILES | activation of hTRPA1 [1] | inhibition of hTRPA1 activation by menthol and allyl isothiocyanate [1] | further results
CC1(C)[C@@H]2CC[C@@]1(C)[C@](C)(O)C2 [2-methylosoborneol] | did not activate | completely inhibited | –
CC12CCC(CC1=O)C2(C)C (stereo not shown) [camphor] | did not activate | – | –
CC12CCC(C1)C(C)(C)C2O (stereo not shown) [fenchyl alcohol] | did not activate | completely inhibited | –
CCCCCCCC/C=C\CCCCCCCC(=O)O [oleic acid] | – | – | pain and itch responses [2]: inhibited; TRPV1 activity [3]: inhibited
O=C1CC2CC[C@H]1C2 [norcamphor] | did not activate | – | –
CC12CCC(CC1)C(C)(C)O2 [1,8-cineole] | – | – | activation of hTRPV1 [4]: did no( activate; activation of hTRPV2 [5]: did no( activate; activation of human TRPM8 [6]: activates
CC1(C)C2CCC1(C)C(O)C2 (stereo not shown) [borneol] | did not activate | completely inhibited | –
